Reference: PMC7819857, “Identification of Inhibitors of Integrin Cytoplasmic Domain Interactions With Syk” (Frontiers in Immunology, 2021)
Like-named read-outs stand apart in the source and are kept apart here.

How the values were obtained:
[1] = target: T1, integrin β3 cytoplasmic domain : tandem SH2 domains of Syk (GST-Syk(6-370)) (Homo sapiens, UniProt P43405); assay: AlphaScreen of integrin β3 cytoplasmic domain peptide binding to GST-Syk(6-370); details: for fold difference in inhibition, primary screen over false-positive counter screen (hit criterion): re-sourced compounds, counter screen with biotinylated GST; for inhibition of fluorescent signal in the primary screen, re-sourced compounds (hit criterion): re-sourced from a separate commercial source, 25 uM in text, 30 uM in legend of Figure 2C
T1 construct: the tandem SH2 domains of Syk (residues 6-370); made in house; host or cells: E. coli BL21(DE3)
Method: The following HTS assay was developed to identify antagonists of the interaction between the integrin β3 cytoplasmic domain and the non-receptor tyrosine kinase Syk. […] ( Figure 1E ). Background signals in this assay were determined by omitting the integrin β3 peptide. Specific assay conditions are described in Table 1 . […] Then, either dimethyl sulfoxide control or compound was added, followed by biotinylated β3 peptide, and avidin-coated AlphaScreen donor beads. After a 4-h incubation period at room temperature (while protected from light), assays plates were read on an Infinite M1000 (Tecan) multiplate reader (Ex. 680/30; Em. 570/100).
Figure 3 Dose-response curves in primary and orthogonal screens. (A) AlphaScreen dose-response curves. […] Data are expressed as mean fluorescence (Fl520) ± range from duplicates, and one representative experiment of “n” performed is shown. (B) Orthogonal ELISA-based dose-response assays. […] Data are expressed as mean abs450 ± SEM from triplicate determinations, and one of three representative experiments is shown. (C) Ceftazidime inhibition of β3 peptide binding to Syk from THP-1 whole cell lysate. THP-1 cell lysate (100 ug) was treated with or without ceftazidime (Ctaz) before incubation with β3-coated avidin-agarose beads, and bound Syk was measured by western blot (example shown in inset). Blank beads served as a negative control. Equal β3 peptide loading was verified by probing blots with avidin-HRP (not shown).

GST-free Syk(6-370) = target: T2, GST-free Syk(6-370) (Homo sapiens, UniProt P43405); assay: Thermal denaturation assay (SYPRO orange); assay type: binding; details: Syk(6-370) 2 µM, dose-dependent
T2 construct: Syk 6-370 (GST tag removed by thrombin cleavage) was used; GST (N, cleaved yes); made in house; host or cells: E. coli BL21(DE3)
Method: In this assay, Syk 6-370 (GST tag removed by thrombin cleavage) was used. Thrombin (GE Healthcare cat#270846, reconstituted in PBS to 1 unit/ul) was applied to the GST-Syk 6-370 protein bound to the Glutathione Sepharose beads. The GST-tag was cleaved with 20 unit/1 ml of protein-GST beads in PBS overnight at room temperature. After chromatography and additional cleaning on GST-beads, the purified protein was verified by SDS-PAGE. For thermal denaturation experiments, GST-free Syk(6-370) was used at a final concentration of 2 µM and SYPRO orange (Thermo Scientific, cat# S6650) at a 0.08% (v/v) dilution (from a 5000x stock). Compounds were used at indicated concentrations. Numerous reaction buffers were initially screened, and a final buffer containing 25 mM HEPES (pH 7.5) with 100 mM NaCl was used. Assays were performed in 20 µl volumes, in triplicate, in 384-well plates (Applied Biosystems MicroAmp 384-well clear optical reaction plate, catalogue #4483285). Plates were sealed with Applied Biosystems Optical Adhesive Cover (cat#4360954) and centrifuged for 2 min at 800 × g at room temperature. Thermal denaturation was measured on a Quant Studio 6 Flex Real-time PCR system (Applied Biosystems). […]

[2] = target: T3, integrin β3 cytoplasmic domain (bβ3(fl)) : GST-Syk(6-370) (Homo sapiens, UniProt P43405); assay: ELISA-based orthogonal assay, bβ3(fl) and GST-Syk(6-370); assay type: binding
T3 construct: the tandem SH2 domains of Syk (residues 6-370); made in house; host or cells: E. coli BL21(DE3)
Method: For ELISA-based assays, 96-well plates (Costar cat# 9018) were coated overnight at 4°C with neutravidin (Thermo Scientific, cat#31050) in 10 mM Tris pH 9 and 100 mM NaCl. After overnight incubation, non-specific binding sites were blocked with bovine serum albumin (BSA) (2% w/v) for at least 1 h at room temperature. Plates were washed in 25 mM HEPES pH 7.5, 100 mM NaCl, 0.1% BSA, and 0.01% TritonX-100 (assay buffer), and indicated biotinylated β3 peptide was incubated for at least 2 h at room temperature (0.5–3 ug/ml in di-H2O). After washing in the assay buffer, GST-fusion proteins were added (50 ul, indicated concentrations) and incubated at room temperature for 1 h in assay buffer. For compound inhibition studies, compounds were added to GST-fusion proteins (at indicated concentrations) before they were added to plates. Plates were washed 3× with assay buffer (200 ul) to remove unbound GST-fusion protein. Horseradish peroxidase (HRP)-conjugated anti-GST antibody [Polyclonal anti-GST(Z-5)-HRP, Santa Cruz Biotechnology, cat #sc-459 0.2 ug/ml] was incubated in washed plates in 50 ul assay buffer for 45 min at room temperature. After washing, the signal was generated with 1-step Ultra TMB-ELISA (Thermo Scientific, cat#34028), stopped with 2 N H2SO4, and read on a plate reader (SPARK 10M/Tecan) at 450 nm.
Figure 3 Dose-response curves in primary and orthogonal screens. (A) AlphaScreen dose-response curves. […] Data are expressed as mean fluorescence (Fl520) ± range from duplicates, and one representative experiment of “n” performed is shown. (B) Orthogonal ELISA-based dose-response assays. […] Data are expressed as mean abs450 ± SEM from triplicate determinations, and one of three representative experiments is shown. (C) Ceftazidime inhibition of β3 peptide binding to Syk from THP-1 whole cell lysate. THP-1 cell lysate (100 ug) was treated with or without ceftazidime (Ctaz) before incubation with β3-coated avidin-agarose beads, and bound Syk was measured by western blot (example shown in inset). Blank beads served as a negative control. […]

[3] = Solubility under assay conditions; assay type: physicochemical
[4] = Figure 3A: biotinylated-b3(sh) peptide 30 nM, GST-Syk(6-370) 0.3 nM, read-out: IC50, AlphaScreen dose-response

| Compound | IC50 [1, 4] | IC50 ([1]; abstract summary for both compounds, read-out: IC50 range, inhibition of integrin β-subunit cytoplasmic domain binding to the tandem SH2 domains of Syk) | IC50 ([1]; as restated in the Discussion, read-out: IC50 in AlphaScreen assays) | IC50 ([1]; biotinylated-b3(sh) peptide 30 nM, GST-Syk(6-370) 0.3 nM, read-out: value printed in Figure 3A, AlphaScreen dose-response (no measure name)) | fold difference in inhibition, primary screen over false-positive counter screen (hit criterion) [1] | inhibition of fluorescent signal in the primary screen, re-sourced compounds (hit criterion) [1] | effect on melting temperature (Tm) of Syk(6-370) (GST-free Syk(6-370)) | inhibitory activity in ELISA-based orthogonal assay [2] | solubility under ELISA assay conditions ([3]; ELISA assay buffer, highest doses tested) | solubility for retest in primary and false-positive screens ([3]; re-sourced hit retest, 30 uM) |
| --- | --- | --- | --- | --- | --- | --- | --- | --- | --- | --- |
| NC(=O)c1cc[n+](CC2=C(C(=O)O)N3C(=O)[C@@H](NC(=O)[C@@H](c4ccccc4)S(=O)(=O)[O-])[C@H]3SC2)cc1 [cefsulodin] | 4.9 ± 4.2 µM | 1.02 to 4.9 µM | 4.2 µM | 4.89 ± 4.2 µM | greater than 3 fold | greater than 50% | decreased | remained active |  |  |
| C=C1c2cccc(O)c2C(=O)C2=C(O)[C@]3(O)C(=O)C(C(N)=O)=C(O)[C@@H](N(C)C)[C@@H]3[C@@H](O)[C@H]12 [methacycline] | 22.4 ± 4.1 µM |  |  |  | greater than 3 fold | greater than 50% |  |  | not soluble at the highest doses tested |  |
| CC[C@@]1(O)C(=O)OCc2c1cc1n(c2=O)Cc2cc3c(CN(C)C)c(O)ccc3nc2-1 [topotecan] |  |  |  |  |  |  |  |  |  | lack of solubility |
| neomycin sulfate | 0.038 ± 0.019 µM |  |  |  | greater than 3 fold | greater than 50% |  | did not demonstrate inhibitory activity |  |  |
